Measured values taken from PMC10920779, “Targeting P2Y14R protects against necroptosis of intestinal epithelial cells through PKA/CREB/RIPK1 axis in ulcerative colitis” (Nature Communications, 2024).
pIC50: −log10 of the molar value. Several values for one entry are separate records, joined by “and”; a condition that tells them apart may be missing. Equal entries are not always repeated.

What was measured:
[1] = Cytotoxicity by CCK8 analysis in HT-29 cells; type: cell-based, human; settings: human, HT-29 cells, read-out: Cell viability (%)
Protocol: Necroptosis was induced by pretreatment with TNF‐α (20 ng·mL^−1) plus z‐VAD‐fmk (20 μM) and Smac mimetic (BV6, 2 μM) for 8 h, then stained cells with hematoxylin/eosin. For PI/Hoechst staining, cells were stained with PI and Hoechst for 20 min, then photographed with a fluorescence microscope and at least 300 cells were counted. The ratio of PI positive cells (%) = (PI positive cells) / (Hoechst positive cells) × 100%. For cell viability assay, CCK8 was added to the well and incubated for 1 − 2 h and then OD450 was measured using a multi-mode microplate reader (Cytation5, BioTek).

P2Y14R = molecular target: T1, P2Y14R (Homo sapiens, UniProt Q15391); assay: cAMP production assay for P2Y14R antagonistic activity in P2Y14-HEK293 cells
T1 sequence (Q15391 1-338): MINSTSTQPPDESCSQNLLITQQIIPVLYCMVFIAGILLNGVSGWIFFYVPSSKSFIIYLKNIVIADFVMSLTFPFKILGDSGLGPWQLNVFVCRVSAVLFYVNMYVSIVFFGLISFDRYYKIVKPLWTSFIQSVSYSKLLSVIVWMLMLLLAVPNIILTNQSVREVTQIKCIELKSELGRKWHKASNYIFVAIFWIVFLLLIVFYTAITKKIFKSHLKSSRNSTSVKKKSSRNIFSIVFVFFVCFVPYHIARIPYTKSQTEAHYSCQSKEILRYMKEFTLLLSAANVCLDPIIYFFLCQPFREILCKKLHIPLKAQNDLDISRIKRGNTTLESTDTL
Protocol: Data points shown are the mean values of at three independent experiments, each performed in duplicate. […] The data obtained from three independent experiments and represented as mean ± SD. Statistical significance was determined by One-way ANOVA with Tukey multiple comparison test.

[2] = test system: apoptosis and pyroptosis of IECs; assay: Apoptosis and pyroptosis markers in IECs of DSS-treated mice (TUNEL, cleaved caspase-3, Bcl-2, Bax, GSDMD-NT, caspase-1 p20); type: in vivo, mouse; parameters: GSDMD / caspase-1 / caspase-3: scale not given here; settings: for BAX/BCL / GSDMD / caspase-1 / caspase-3: replicates
Protocol: Tissues and cells were lysed using RIPA lysis buffer (Beyotime Biotechnology) containing protease and phosphatase inhibitor, homogenated, and centrifuged. The protein concentration was determined by BCA protein assay (Beyotime Biotechnology). Equal concentrations of proteins were separated in a 10% SDS-PAGE and transferred to PVDF membrane. The membrane was blocked using 5% milk in TBST, probed with primary antibody, RIPK1 (17519-1-AP, Proteintech, 1:1000), MLKL (GTX107538-100, GeneTex, 1:1000), RIPK3 (17563-1-AP, Proteintech, 1:1000), p-MLKL (EPR9514, Abcam, 1:1000), PKA (bs-0520R, Bioss, 1:1000), p-PKA (#9621, Cell signaling, 1:1000), CREB (AF6188, Affinity, 1:1000), p-CREB (AF3189, Affinity, 1:1000), P2Y14R (bs-12028R, Bioss, 1:1000), GSDMD (ab209845, Abcam, 1:1000), Caspase1 p20 (bs-10442R, Bioss, 1:1000), Bcl-2 (bs-0032R, Bioss, 1:1000), Bax (AF0120, Affinity, 1:1000), Caspase-3 p-17 (Cell Signaling Technology, #9664, 1:1000), β-actin (bs-0061R, Bioss, 1:1000), GAPDH (BS-2188R, Bioss, 1:1000) and corresponding HRP-conjugated antibodies Goat Anti-Rabbit IgG H&L Antibody (bioss, Bs-0295G, 1:8000) or Goat Anti-Mouse IgG H&L Antibody (bioss, Bs-0296G, 1:8000). Densitometry was quantified using ImageJ software.
Immunofluorescence staining was performed using paraffin-embedded tissues as mentioned before. For immunofluorescence, the paraffin slides were deparaffinized, rehydrated, blocked and treated according to a standard protocol. The expression of intestinal barrier associated tight junction protein, P2Y14R and EpCAM was evaluated by probing the tissues with primary antibody against Claudin-1 (bioss, bs-10011R, 1:300), Occludin (bioss, DF6919, 1:300), ZO-1 (Affinity, AF5145, 1:300), EpCAM (AiFang, AF04654, 1:300), Caspase-3 p-17 (Cell Signaling Technology, #9664, 1:1000) and P2Y14R (Invitrogen, PAS-103202, 1:300) overnight at 4°C followed by 1 h incubation with the corresponding secondary antibody Goat Anti-Mouse IgG H&L (Alexa Fluor® 555) (ab150114, Abcam, 1:500) or Goat Anti-Rabbit IgG H&L (Alexa Fluor® 488) (ab150077, Abcam, 1:300). All slides were incubated with DAPI (S2110, Solarbio) for 10 min to show the location of the nucleus. Images were captured with a confocal microscope (LSM 800, Zeiss).
TUNEL staining was performed using paraffin-embedded tissues as mentioned before. The staining was performed with apoptosis kit (11684817910, Roche) to detect apoptotic cells in colon sections according to the instructions of manufacturer. After the paraffin sections conventional dewaxing to water, performed the antigen recovery with protease K working solution at 37°C for 22 min. Then incubated the sections with permeabilize working solution at room temperature for 20 min. Next, take appropriate amount of TDT enzyme, dUTP and buffer in the tunel kit according to the number of slices and tissue size and mix at 1:5:50 ratio, and used to incubate the tissues at 37°C for 1 h. Finally, the DAPI dye (S2110, Solarbio) was used to stain nucleus at room temperature for 10 min. Images were captured with NanoZoomer S60 (C13210-01, Hamamatsu).

[3] = parameters: method as in PMID 24138077; settings: cited from earlier work

Brc1ccc(NCc2nc3ccccc3o2)cc1 [HDL-16]
viability at 12 h, 1 nM ([1]; 1 nm): 108%
viability at 12 h, 1 µM ([1]; 1 μm): 117%
viability at 12 h, 10 µM ([1]; 10 μm): 103%
viability at 12 h, 100 nM ([1]; 100 nm): 109%
pIC50 (P2Y14R): 9.51
Inhibition of cAMP production in P2Y14-HEK293 cells, Inhibition (%) (P2Y14R; 10 nM, 0.01 µM): 84.08% and 80.86%
Inhibition of cAMP production in P2Y14-HEK293 cells, Inhibition (%) (P2Y14R; 100 nM, 0.1 µM): 122.69% and 101.65% and 74.17%
inhibition at 0.01 µM (P2Y14R; read-out: Inhibition of cAMP production in P2Y14-HEK293 cells, Inhibition (%), 10 nM): 94%
BAX/BCL ([2]; DSS+HDL-16-H (high dose)): 7.829 and 4.146 and 3.473 and 3.902 and 4.249
GSDMD ([2]; DSS+HDL-16-H (high dose)): 1.314 and 1.225 and 1.812 and 1.35 and 1.898
caspase-1 ([2]; DSS+HDL-16-H (high dose)): 2.375 and 1.892 and 1.815 and 1.586 and 3.381
caspase-3 ([2]; DSS+HDL-16-H (high dose)): 2.22 and 2.236 and 2.6476 and 2.354 and 2.345
BAX/BCL ([2]; DSS+HDL-16-L (low dose)): 6.676 and 3.513 and 3.416 and 6.035 and 4.817
GSDMD ([2]; DSS+HDL-16-L (low dose)): 1.693 and 1.518 and 1.46 and 1.354 and 1.839
caspase-1 ([2]; DSS+HDL-16-L (low dose)): 2.037 and 2.2873 and 0.9771 and 2.5083 and 2.278
caspase-3 ([2]; DSS+HDL-16-L (low dose)): 2.396 and 2.3353 and 3.098 and 2.578 and 2.264
Apoptosis and pyroptosis of IECs ([2]; DSS-induced inflammation, TUNEL and western blot): did not influence the apoptosis and pyroptosis

O=C(O)c1cc(-c2ccc(C3CCNCC3)cc2)c2ccc(-c3ccc(C(F)(F)F)cc3)cc2c1 [PPTN, reference compound]
Solubility [3]: poor solubility
